Results on 24 molecules are retold here after the supplement of paper PMC10627819.

Assay in all cases: Bliss interaction score (quartile over a dose matrix) (fitness difference); higher = more antagonism (negative = synergy)
The test system of one test is S. aureus Newman. The procedure, abridged:
(§1)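 Values were capped at 1 after dividing OD595 at stationary-phase entry by the plate's robust no-drug mean. This ratio is fitness, and single-drug fitness was inferred from the combination data. The Bliss score is observed minus product-expected fitness, given as quartiles over technical, biological and donor/recipient replicates.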

The next test concerns B. subtilis 168. The procedure, abridged:
as §1

A further test concerns S. aureus DSM 20231. The procedure, abridged:
as §1

A further test relates to S. pneumoniae D39V. The procedure, abridged:
as §1
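Also: first quartile when negative (synergy) and third quartile when positive (antagonism).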

Consider `CO/N=C(\C(=O)N[C@@H]1C(=O)N2C(C(=O)O)=C(COC(C)=O)CS[C@H]12)c1csc(N)n1` [Cefotaxime] + CCC[C@@H]1C[C@@H](C(=O)N[C@@H]([C@H]2O[C@H](SC)[C@H](O)[C@@H](O)[C@H]2O)[C@H](C)Cl)N(C)C1 [Clindamycin], for which the Bliss interaction score in the test with S. aureus Newman was -0.0656; in the test on B. subtilis 168, 0.0327; in the test on S. aureus DSM 20231, 0.0463; in the test with S. pneumoniae D39V, 0.113.
In the case of `CC(=O)Oc1ccccc1C(=O)O` [Acetylsalicylicacid] + CN[C@H](CC(C)C)C(=O)N[C@H]1C(=O)N[C@@H](CC(N)=O)C(=O)N[C@H]2C(=O)N[C@H]3C(=O)N[C@H](C(=O)N[C@H](C(=O)O)c4cc(O)cc(O)c4-c4cc3ccc4O)[C@H](O[C@H]3C[C@](C)(N)[C@@H](O)[C@H](C)O3)c3ccc(c(Cl)c3)Oc3cc2cc(c3O[C@@H]2O[C@H](CO)[C@@H](O)[C@H](O)[C@H]2O[C@H]2C[C@](C)(NCc3ccc(-c4ccc(Cl)cc4)cc3)[C@@H](O)[C@H](C)O2)Oc2ccc(cc2Cl)[C@H]1O [Oritavancin], the Bliss interaction score with S. aureus Newman was 0.086; in the test on B. subtilis 168, -0.0215; in the test with S. aureus DSM 20231, 0.0533; in the test with S. pneumoniae D39V, 0.071.
The like results for `Cc1ncc([N+](=O)[O-])n1CCO` [Metronidazole] + CC1(C)S[C@@H]2[C@H](NC(=O)Cc3ccccc3)C(=O)N2[C@H]1C(=O)O [PenicillinG] were, in that order, 0.0592, 0.0322, 0.0819 and 0.114.
For the molecule `CO/N=C(\C(=O)N[C@@H]1C(=O)N2C(C(=O)O)=C(COC(C)=O)CS[C@H]12)c1csc(N)n1` [Cefotaxime] + O=C(N[C@H](CO)[C@H](O)c1ccc([N+](=O)[O-])cc1)C(Cl)Cl [Chloramphenicol], the Bliss interaction score in the test on S. aureus Newman is -0.0902; with B. subtilis 168, -0.0771; in the test on S. aureus DSM 20231, 0.106; in the test on S. pneumoniae D39V, 0.158.
In the case of `CN(C)[C@@H]1C(O)=C(C(N)=O)C(=O)[C@@]2(O)C(O)=C3C(=O)c4c(O)ccc(Cl)c4[C@@](C)(O)[C@H]3C[C@@H]12` [Clortetracycline] + N[C@@H]1CONC1=O [CycloserineD], the Bliss interaction score is 0.0727 with S. aureus Newman, 0.0921 in the test on B. subtilis 168, -0.118 in the test on S. aureus DSM 20231 and 0.199 in the test on S. pneumoniae D39V.
As for `CN(C)[C@@H]1C(O)=C(C(N)=O)C(=O)[C@@]2(O)C(O)=C3C(=O)c4c(O)ccc(Cl)c4[C@@](C)(O)[C@H]3C[C@@H]12` [Clortetracycline] + Clc1ccc(COC(Cn2ccnc2)c2ccc(Cl)cc2Cl)c(Cl)c1 [Miconazole], the Bliss interaction score with S. aureus Newman stood at 0.0716; in the test on B. subtilis 168 it was 0.0788; in the test with S. aureus DSM 20231, 0.0511; in the test on S. pneumoniae D39V, 0.0793.
Consider `N#CC(C#N)=NNc1cccc(Cl)c1` [CCCP] + CC(=O)O[C@H]1C[C@@]2(C)[C@@H](C[C@@H](O)[C@H]3[C@@]4(C)CC[C@@H](O)[C@@H](C)[C@@H]4CC[C@@]32C)/C1=C(\CCC=C(C)C)C(=O)O [Fusidic acid], for which the Bliss interaction score in the test on S. aureus Newman was 0.0673; with B. subtilis 168, -0.18; in the test on S. aureus DSM 20231, 0.0429; with S. pneumoniae D39V it was 0.122.
Regarding `CC(=O)Oc1ccccc1C(=O)O` [Acetylsalicylicacid] + CC[C@H]1OC(=O)[C@H](C)[C@@H](O[C@H]2C[C@@](C)(OC)[C@@H](O)[C@H](C)O2)[C@H](C)[C@@H](O[C@@H]2O[C@H](C)C[C@H](N(C)C)[C@H]2O)[C@](C)(OC)C[C@@H](C)C(=O)[C@H](C)[C@@H](O)[C@]1(C)O [Clarithromycin], the Bliss interaction score in the test on S. aureus Newman came out at 0.151; with B. subtilis 168, 0.322; in the test with S. aureus DSM 20231, 0.109; with S. pneumoniae D39V it was 0.0695.
The like results for `CC(=O)Oc1ccccc1C(=O)O` [Acetylsalicylicacid] + C/C(=C\C(=O)OCCCCCCCCC(=O)O)C[C@@H]1OC[C@H](C[C@@H]2O[C@H]2[C@@H](C)[C@H](C)O)[C@@H](O)[C@H]1O [Pseudomonic acid] were, in that order, -0.0211, -0.2, -0.0241 and -0.0974.
Consider `CC(=O)Oc1ccccc1C(=O)O` [Acetylsalicylicacid] + CC1(C)S[C@@H]2[C@H](NC(=O)[C@H](N)c3ccc(O)cc3)C(=O)N2[C@H]1C(=O)O [Amoxicillin], for which the Bliss interaction score was -0.0753 in the test on S. aureus Newman, 0.192 in the test with B. subtilis 168, 0.078 in the test with S. aureus DSM 20231 and 0.0431 with S. pneumoniae D39V.
On to `COc1cccc2c1C(=O)c1c(O)c3c(c(O)c1C2=O)C[C@@](O)(C(=O)CO)C[C@@H]3O[C@H]1C[C@H](N)[C@H](O)[C@H](C)O1` [Doxorubicin] + CC1(C)S[C@@H]2[C@H](NC(=O)Cc3ccccc3)C(=O)N2[C@H]1C(=O)O [PenicillinG], for which the Bliss interaction score in the test on S. aureus Newman is -0.0818; in the test with B. subtilis 168, 0.0777; with S. aureus DSM 20231, 0.0914; in the test on S. pneumoniae D39V it was 0.0966.
The like results for `CC(=O)Oc1ccccc1C(=O)O` [Acetylsalicylicacid] + CN(C)C(=O)C(CCN1CCC(O)(c2ccc(Cl)cc2)CC1)(c1ccccc1)c1ccccc1 [Loperamide] were, in that order, -0.0344, 0.0636, 0.131 and 0.144.
For `CC(=O)Oc1ccccc1C(=O)O` [Acetylsalicylicacid] + O=C1CN(/N=C/c2ccc([N+](=O)[O-])o2)C(=O)N1 [Nitrofurantoin] the same measures were -0.0905, -0.202, -0.0978 and 0.0904.
The like results for `N#CC(C#N)=NNc1cccc(Cl)c1` [CCCP] + Clc1ccc(COC(Cn2ccnc2)c2ccc(Cl)cc2Cl)c(Cl)c1 [Miconazole] were, in that order, -0.0554, 0.0582, -0.0382 and -0.0431.
For `C[C@@H]1O[C@@H]1P(=O)(O)O` [Fosfomycin] + CN[C@H](CC(C)C)C(=O)N[C@H]1C(=O)N[C@@H](CC(N)=O)C(=O)N[C@H]2C(=O)N[C@H]3C(=O)N[C@H](C(=O)N[C@H](C(=O)O)c4cc(O)cc(O)c4-c4cc3ccc4O)[C@H](O[C@H]3C[C@](C)(N)[C@@H](O)[C@H](C)O3)c3ccc(c(Cl)c3)Oc3cc2cc(c3O[C@@H]2O[C@H](CO)[C@@H](O)[C@H](O)[C@H]2O[C@H]2C[C@](C)(NCc3ccc(-c4ccc(Cl)cc4)cc3)[C@@H](O)[C@H](C)O2)Oc2ccc(cc2Cl)[C@H]1O [Oritavancin], the Bliss interaction score with S. aureus Newman was 0.0953; in the test with B. subtilis 168, 0.0255; in the test with S. aureus DSM 20231, 0.0683; with S. pneumoniae D39V, -0.0314.
In the case of `N#CC(C#N)=NNc1cccc(Cl)c1` [CCCP] + CO/N=C(\C(=O)N[C@@H]1C(=O)N2C(C(=O)O)=C(COC(C)=O)CS[C@H]12)c1csc(N)n1 [Cefotaxime], the Bliss interaction score with S. aureus Newman was 0.0493; in the test on B. subtilis 168 it was 0.139; in the test with S. aureus DSM 20231, 0.0268; in the test with S. pneumoniae D39V it was -0.112.
For `N#CC(C#N)=NNc1cccc(Cl)c1` [CCCP] + CC[C@H]1OC(=O)[C@H](C)[C@@H](O[C@H]2C[C@@](C)(OC)[C@@H](O)[C@H](C)O2)[C@H](C)[C@@H](O[C@@H]2O[C@H](C)C[C@H](N(C)C)[C@H]2O)[C@](C)(O)C[C@@H](C)C(=O)[C@H](C)[C@@H](O)[C@]1(C)O [Erythromycin], the Bliss interaction score with S. aureus Newman was 0.0472; in the test with B. subtilis 168, -0.0587; with S. aureus DSM 20231, 0.023; with S. pneumoniae D39V, -0.0863.
`C[C@H]1c2cccc(O)c2C(=O)C2=C(O)[C@]3(O)C(=O)C(C(N)=O)=C(O)[C@@H](N(C)C)[C@@H]3[C@@H](O)[C@@H]21` [Doxycycline] + CC[C@H]1OC(=O)[C@H](C)[C@@H](O[C@H]2C[C@@](C)(OC)[C@@H](O)[C@H](C)O2)[C@H](C)[C@@H](O[C@@H]2O[C@H](C)C[C@H](N(C)C)[C@H]2O)[C@](C)(O)C[C@@H](C)C(=O)[C@H](C)[C@@H](O)[C@]1(C)O [Erythromycin]: the Bliss interaction score in the test with S. aureus Newman is -0.0251; in the test on B. subtilis 168, -0.162; in the test on S. aureus DSM 20231, -0.0389; in the test on S. pneumoniae D39V, -0.161.
The like results for `CC1(C)S[C@@H]2[C@H](NC(=O)Cc3ccccc3)C(=O)N2[C@H]1C(=O)O` [PenicillinG] + C/C(=C\C(=O)OCCCCCCCCC(=O)O)C[C@@H]1OC[C@H](C[C@@H]2O[C@H]2[C@@H](C)[C@H](C)O)[C@@H](O)[C@H]1O [Pseudomonic acid] were, in that order, 0.0196, 0.0659, 0.0362 and 0.0842.
The like results for `N#CC(C#N)=NNc1cccc(Cl)c1` [CCCP] + CC1(C)S[C@@H]2[C@H](NC(=O)Cc3ccccc3)C(=O)N2[C@H]1C(=O)O [PenicillinG] were, in that order, -0.0514, 0.0568, 0.0402 and 0.0767.
For `CO/N=C(\C(=O)N[C@@H]1C(=O)N2C(C(=O)O)=C(COC(C)=O)CS[C@H]12)c1csc(N)n1` [Cefotaxime] + O=C(O)[C@H]1/C(=C/CO)O[C@@H]2CC(=O)N21 [Clavulanic] the same measures were 0.279, -0.0436, 0.176 and -0.0534.
As to `O=C(O)c1cn(C2CC2)c2cc(N3CCNCC3)c(F)cc2c1=O` [Ciprofloxacin] + CO[C@@]12[C@H](COC(N)=O)C3=C(C(=O)C(C)=C(N)C3=O)N1C[C@@H]1N[C@@H]12 [MitomycinC], the Bliss interaction score with S. aureus Newman was 0.0577; in the test on B. subtilis 168, -0.108; in the test on S. aureus DSM 20231 it was -0.057; in the test on S. pneumoniae D39V, -0.111.
Turning to `CO/N=C(\C(=O)N[C@@H]1C(=O)N2C(C(=O)O)=C(COC(C)=O)CS[C@H]12)c1csc(N)n1` [Cefotaxime] + CC[C@H]1OC(=O)[C@H](C)C(=O)[C@H](C)[C@@H](O[C@@H]2O[C@H](C)C[C@H](N(C)C)[C@H]2O)[C@](C)(OC)C[C@@H](C)C(=O)[C@H](C)[C@H]2N(CCCCn3cnc(-c4cccnc4)c3)C(=O)O[C@]12C [Telithromycin], the Bliss interaction score with S. aureus Newman is -0.033; in the test on B. subtilis 168, 0.0749; with S. aureus DSM 20231 it was 0.0754; in the test on S. pneumoniae D39V, 0.0507.
`C[C@@H]1O[C@@H]1P(=O)(O)O` [Fosfomycin] + CO[C@@]12[C@H](COC(N)=O)C3=C(C(=O)C(C)=C(N)C3=O)N1C[C@@H]1N[C@@H]12 [MitomycinC]: the Bliss interaction score was -0.095 in the test on S. aureus Newman, -0.116 with B. subtilis 168, 0.0499 in the test on S. aureus DSM 20231 and 0.117 in the test with S. pneumoniae D39V.
